{"source": "patent US10975069B2", "about": "“Sigma-2 receptor ligand drug conjugates as antitumor compounds, methods of synthesis and uses thereof” (priority 2014, dated 2021)", "key": {"[1]": {"system": "PDAC patient-derived xenograft", "assay": "PDAC patient-derived mouse xenograft model", "assay_type": "in vivo", "settings": "daily i.p. 375 nmoles for 2 weeks", "experimental": "SW V-49s was also tested on a PDAC patient-derived mouse xenograft model, which is more clinically relevant. Surgical PDAC specimens (2×2 mm pieces) were obtained and implanted subcutaneously into the flanks of anesthetized NOD SCID mice. Then, tumors were harvested and implanted in the right flank of Athymic female nude mice (6 weeks old. National Cancer Institute Laboratories). These mice were treated with daily i.p. injections of […] and vehicle for 14 days. Mice were randomized into 2 groups (n=15). Drug treatment was started when the mean tumors diameter was ^˜6 mm. Mice received daily intra peritoneal injections with 375 nmoles in 100 μL/mouse of SW V-49s and vehicle for 2 weeks. Tumors were measured every other day. Mice were euthanized when tumors reached a diameter of 2 cm or ulcerated."}, "[2]": {"system": "KCKO mouse pancreatic tumors", "assay": "Syngeneic subcutaneous KCKO pancreatic tumor model", "assay_type": "in vivo, C57BL/6 mice", "from_the_text": "FIG. 7 illustrates changes in mean tumor volume (in mm^3) following administration to interval of C57BL/6 mice with established, syngeneic, subcutaneous KCKO mouse pancreatic tumors over a period of 10 days for SW V-49s. Erastin, SV119, a mixture of Erastin and SV119, and a vehicle control. […] Note in FIG. 7 the decrease in tumor volume from approx. 40 mm^3 to approx. 20 mm^3 in SW V 49s-treated mice, compared to an increase from approx. 40 mm^3 to approx. 140 mm^3 for other treatments.\nIn these experiments, in a survival study of the mice reported in Example 9, the group which received SW V-49s survived at 100% (FIG. 8). In all other groups, the mean survival clustered at around 18 days.\n(§1) Animal studies were performed according to the animal studies protocol approved by Washington University Institutional Animal Care Facility. In vivo studies with mice were performed to compare the effects of SW V-49s, SV119. Erastin, a combination of SV119 with Erastin, and vehicle. The vehicle used in the in vivo studies is a mixture of 25% cremophor and 75% H2O. C57BL/6 mice (6 weeks old. National Cancer Institute Laboratories) were injected in the right flank with 200 μL single cell suspension of KCKO cells in RPMI medium (25×10^4/10^5 cells per mouse). Mice were randomized into four groups (n=15). Treatment was started when the mean tumor diameter was ^˜5 mm. Mice received daily intra peritoneal injections with 375 nmoles in 100 μL/dose of SW V-49s and vehicle for 10 days SV119. Erastin, equimolar mix of SV119 and Erastin. Tumors were measured every other day with a digital caliper. Several mice from different treatment groups were sent to the Division of Comparative Medicine in our institution for pathologic evaluation. Blood was collected for complete blood count (CBC) and biochemical analysis (AST, ALT, BUN, total bilirubin, and Cr). Organs were examined grossly and histologically."}, "caspase 9": {"system": "caspase 9", "assay": "CASPASE-GLO caspase 9 assay in AsPC-1 cells", "assay_type": "cell-based, human", "settings": "4 μM, 24 hours, DMSO baseline, FIG. 12B", "experimental": "In these experiments, caspase-3/7.8 and 9 activities were measured In AsPC-1 cells using the corresponding CASPASE-GLO® Assay according to the manufacturer's instructions (Promega, Madison. Wis.). This assay is based on a caspase-specific substrate, which is cleaved to release aminoluciferin, a substrate of luciferase that results in caspase-specific luminescence signals. Cells were seeded at a density of 2×10^4 in white 96-well, clear bottom plates for 24 hours before treatment with 4 μM of compounds. The contents were then mixed using a plate shaker for 30 seconds, thereafter incubated at room temperature for 90 minutes. Luminescence signal was measured using a multi-mode microplate reader (BioTek). Assay was performed in triplicates, and the caspase activity of DMSO was considered as a base line.\nThe present inventors have shown that SV119 induces caspase-3 dependent apoptosis (Kashiwagi, H., el al. Mol Cancer 2007; 6:48). In these experiments, AsPC-1 cells were treated with 4 μM of SW V-49s. SV119, Erastin, and equimolar mixture of SV119 and Erastin for 24 hours. Using CASPASE-GLO® Assays, Caspase-3 level was measured to assess the activity of SW 119 domain of the SW V-49s compound and Caspase-8 and 9 levels were measured to identify which apoptotic pathway was involved."}, "[3]": {"assay": "Toxicity study (necropsy, CBC, clinical chemistry) in tumor bearing mice", "assay_type": "in vivo, C57BL/6 mice", "experimental": "Six adult female mice were submitted to necropsy. The strain designation of the mice was C57BL/6. […]\nas §1, with “The vehicle used in the in vivo studies is a mixture of 25% cremophor and 75% H2O.” left out, “Mice received daily intra peritoneal injections with 375 nmoles in 100 μL/dose of SW V-49s and vehicle for 10 days SV119.” left out"}, "[4]": {"settings": "Table 2, individual mouse, listed as test drug"}, "[5]": {"settings": "Table 3 differential, individual mouse"}, "[6]": {"settings": "Table 3 differential, individual mouse, listed as test drug"}, "[7]": {"settings": "Table 4, individual mouse, listed as test drug"}, "[8]": {"settings": "Table 6, individual mouse (Drug 1-3), treated 10 days"}, "[9]": {"settings": "Table 7, individual mouse (Drug 1-3), treated 10 days"}, "[10]": {"settings": "daily i.p. 375 nmoles for 10 days"}}, "note": "Values joined by “and” are separate entries in the source; they are usually repeats but may differ in a detail not shown here. Equal entries are not always repeated.", "data": [{"smiles": "CCOc1ccccc1-n1c(CN2CCN(C(=O)COc3ccc(CNCCCCCCN4C5CCCC4CC(OC(=O)Nc4cc(C)ccc4OC)C5)cc3)CC2)nc2ccccc2c1=O.O=C(O)C(=O)O", "note": "(centres unmarked) [SW V-49s]", "values": [{"measurement": "tolerability", "setting": "[1]", "result": "tolerated the treatment well without obvious off-target effects"}, {"measurement": "growth rate of established tumors", "setting": "[1]; FIG. 14C", "result": "markedly slowed the growth rate of the established tumors"}, {"measurement": "median survival", "setting": "[1]; vehicle 33 days, FIG. 14D", "result": 58, "unit": "days"}, {"measurement": "change in tumor volume", "setting": "[2]; 10 days, p<0.05, FIG. 7", "result": "significant decrease in tumor volume"}, {"measurement": "effect on mean tumor volume / tumor growth", "setting": "[2]; daily i.p. 375 nmoles for 10 days, FIG. 14A", "result": "capable of reducing the mean tumor volume"}, {"measurement": "median survival", "setting": "[2]; daily i.p. 375 nmoles for 10 days, Kaplan-Meier, FIG. 14B", "result": 48, "unit": "days"}, {"measurement": "mean tumor volume at end of treatment", "setting": "[2]; over a period of 10 days, from approx. 40 mm^3 at start, FIG. 7", "result": "approx. 20 mm^3"}, {"measurement": "survival", "setting": "[2]; survival study, FIG. 8", "result": 100, "unit": "%"}, {"measurement": "caspase-9 fold above baseline", "setting": "caspase 9", "result": 3.2, "unit": "fold"}, {"measurement": "WBC", "setting": "[3]; Table 2, individual mouse, daily i.p. over 2 weeks, listed as test drug", "result": "5.68 10^3/μL and 3.34 10^3/μL and 4.16 10^3/μL"}, {"measurement": "Platelets", "setting": "[3]; Table 2, individual mouse, * mild platelet clumping, listed as test drug", "result": "749* 10^3/μL and 885 10^3/μL and 611 10^3/μL"}, {"measurement": "HGB", "setting": "[3]; [4]", "result": "10.7 g/dL and 10.5 g/dL and 9.8 g/dL"}, {"measurement": "MCH", "setting": "[3]; [4]", "result": "12.3 pg and 12.5 pg and 12.8 pg"}, {"measurement": "MCHC", "setting": "[3]; [4]", "result": "27.2% and 24.8% and 26.0%"}, {"measurement": "MCV", "setting": "[3]; [4]", "result": "45.3 u and 50.5 u and 49.2 u"}, {"measurement": "PCV", "setting": "[3]; [4]", "result": "39.3% and 42.4% and 37.7%"}, {"measurement": "RBC", "setting": "[3]; [4]", "result": "8.67 10^6/μL and 8.40 10^6/μL and 7.66 10^6/μL"}, {"measurement": "Bands", "setting": "[3]; [5]", "result": 0, "unit": "%"}, {"measurement": "Basophils", "setting": "[3]; [5]", "result": 0, "unit": "%"}, {"measurement": "Eosinophils", "setting": "[3]; [5]", "result": 0, "unit": "%"}, {"measurement": "Nrbe", "setting": "[3]; [5]", "result": 0, "unit": "%"}, {"measurement": "Lymphocytes", "setting": "[3]; [6]", "result": "96% and 78% and 87%"}, {"measurement": "Monocytes", "setting": "[3]; [6]", "result": "2% and 4% and 0%"}, {"measurement": "Neutrophils", "setting": "[3]; [6]", "result": "2% and 18% and 13%"}, {"measurement": "ALT", "setting": "[3]; [7]", "result": "138 u/L and 64 u/L and 63 u/L"}, {"measurement": "AST", "setting": "[3]; [7]", "result": "167 u/L and 147 u/L and 55 u/L"}, {"measurement": "BUN", "setting": "[3]; [7]", "result": "19 mg/dL and 22 mg/dL and 17 mg/dL"}, {"measurement": "Creatinine", "setting": "[3]; [7]", "result": "0.22 mg/dL and 0.21 mg/dL and 0.24 mg/dL"}, {"measurement": "Glucose", "setting": "[3]; [7]", "result": "178 mg/dL and 310 mg/dL and 180 mg/dL"}, {"measurement": "Total Protein", "setting": "[3]; [7]", "result": "5.1 g/dL (2×) and 5.7 g/dL"}, {"measurement": "HGB", "setting": "[3]; [8]", "result": "9.8 g/dL and 10.7 g/dL and 10.5 g/dL"}, {"measurement": "MCH", "setting": "[3]; [8]", "result": "12.8 pg and 12.3 pg and 12.5 pg"}, {"measurement": "MCHC", "setting": "[3]; [8]", "result": "26.0% and 27.2% and 24.8%"}, {"measurement": "MCV", "setting": "[3]; [8]", "result": "49.2 u and 45.3 u and 50.5 u"}, {"measurement": "PCV", "setting": "[3]; [8]", "result": "37.7% and 39.3% and 42.4%"}, {"measurement": "Platelets", "setting": "[3]; [8]", "result": "611 10^3/μL and 749 10^3/μL and 885 10^3/μL"}, {"measurement": "RBC", "setting": "[3]; [8]", "result": "7.66 10^6/μL and 8.67 10^6/μL and 8.40 10^6/μL"}, {"measurement": "WBC", "setting": "[3]; [8]", "result": "4.16 10^3/μL and 5.68 10^3/μL and 3.34 10^3/μL"}, {"measurement": "ALT", "setting": "[3]; [9]", "result": "138 μ/L and 64 μ/L and 63 μ/L"}, {"measurement": "AST", "setting": "[3]; [9]", "result": "167 μ/L and 147 μ/L and 55 μ/L"}, {"measurement": "BUN", "setting": "[3]; [9]", "result": "19 mg/dL and 22 mg/dL and 17 mg/dL"}, {"measurement": "Creatinine", "setting": "[3]; [9]", "result": "0.22 mg/dL and 0.21 mg/dL and 0.24 mg/dL"}, {"measurement": "Glucose", "setting": "[3]; [9]", "result": "178 mg/dL and 310 mg/dL and 180 mg/dL"}, {"measurement": "Total Protein", "setting": "[3]; [9]", "result": "5.1 g/dL (2×) and 5.7 g/dL"}, {"measurement": "mice behavior and drug-related deaths", "setting": "[3]; [10]", "result": "no gross abnormalities in the mice behavior (grooming) or any drug-related deaths were recorded"}, {"measurement": "organs analyses (brain, heart, lungs, alimentary tract, kidneys, liver and pancreas), adverse drug effects", "setting": "[3]; [10]", "result": "did not reveal any obvious signs of adverse drug effects, except a mild peritonitis"}, {"measurement": "serum labs (CBC, AST, ALT, BUN, total bilirubin, and Cr)", "setting": "[3]; [10]", "result": "unchanged"}, {"measurement": "histopathologic finding in drug-treated versus control animals", "setting": "[3]; daily i.p. over 2 weeks", "result": "minimal to moderate chronic peritonitis"}, {"measurement": "Body weight", "setting": "[3]; pre-necropsy, individual mouse, daily i.p. over 2 weeks, listed as test drug", "result": "21 grams and 19 grams and 22 grams"}, {"measurement": "differences in cell counts (CBC) versus vehicle", "setting": "[3]; treated for 10 days, Table 6", "result": "not statistically significant"}]}]}
